# According to PMC10354055, “An optimized Nurr1 agonist provides disease-modifying effects in Parkinson’s disease models” (Nature Communications, 2023):
# “And” between values parts separate entries of the source, which are not always exact repeats. Identical values can stand only once. Like-named read-outs stand apart in the source and are kept apart here.
# How the values were obtained:
# Nor1 = target: T1, Nor1 (Homo sapiens, UniProt Q92570); experiment: Luciferase reporter assay, Nor1 LBD, SK-N-BE(2)C cells; assay type: cell-based; settings: Fig. 1f; CQ 100 µM, 4A7C-301 20 µM, PGA1 10 µM
# T1 construct: using LBD of NR4A subfamily members in SK-N-BE(2)C cells; expressed in transfected cells; host or cells: SK-N-BE(2)C
# T1 sequence (Q92570 394-623 limits assumed): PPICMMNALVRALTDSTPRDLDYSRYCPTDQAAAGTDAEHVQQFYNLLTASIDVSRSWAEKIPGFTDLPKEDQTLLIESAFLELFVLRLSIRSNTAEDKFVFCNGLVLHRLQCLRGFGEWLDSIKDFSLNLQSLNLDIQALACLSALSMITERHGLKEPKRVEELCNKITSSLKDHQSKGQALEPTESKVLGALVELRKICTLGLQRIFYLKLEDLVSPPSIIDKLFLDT
# TH+ neurons = experiment: Primary rat VM neuron-glia co-culture, TH+ neurons (ICC); assay type: cell-based
# Procedure: After blocking with 10% normal donkey serum (NDS) and 0.1% Triton X-100 solution for 1 h at room temperature, cells were incubated with primary antibodies against TH (1:1,000; Pel Freez, P40401) and Iba-1 (1:500; Abcam, ab5076) in 1% NDS and 0.1% Triton X-100 solution for overnight at 4 °C. […] Fluorescence images were taken using a KEYENCE microscope (BZ-X800; KEYENCE).
# N27-A cells = experiment: Autophagic flux, Western blot LC3B and p62, N27-A cells; assay type: cell-based, rat; settings: for Relative LC3B-II experession (normalized to β-actin): individual replicates; for autophagic flux (in words): N27-A
# Procedure: Experiments were confirmed by duplicate measurements of the same sample. Quantification of immunoreactive bands was performed using ImageJ software (NIH, Bethesda, MD, USA) and expressed as a relative ratio against β-actin.
# The band intensities were quantified using ImageJ and normalized against β-actin.
# [1] = BBB permeability assay, plasma and brain LC-MS/MS after oral administration; assay type: in vivo, rat;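 as to plasma: oral dosing solution 2 mg/mL in saline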
# Procedure: Final dose of […] 4A7C-301 dissolved in saline was orally administrated to SD rats (male, 7-9 weeks, n = 3 per group). To measure the 4A7C-301 concentration in the brain, rats were fully exsanguinated to remove residual blood prior to brain collection. Brain and blood samples were collected at 0.25, 0.5, 1, 2, 4, 6, 8, and 24 h after administration. A robust LC-MS/MS method was developed with the lower limit of quantification (LLOQ) of 1 ng/mL and 0.5 ng/mL for the quantification of 4A7C-301 in plasma and brain, respectively. The accuracy of all accepted QC samples of 4A7C-301 at low, middle, and high concentration levels met the acceptance criteria. Isolated brains were homogenized in PBS as brain weight (g) to PBS volume (mL) ratio 1:3. The desired serial concentrations of working solutions were achieved by diluting stock solution of analyte with 50% acetonitrile in water solution. 5 µL of working solutions (5, 10, 20, 50, 100, 500, 1000, 5000 ng/mL) were added to 50 μl of male SD rat blank brain homogenate to achieve calibration standards of 0.5 ~ 500 ng/mL (0.5, 1, 2, 5, 10, 50, 100, 500 ng/mL) in a total volume of 55 μl. Four quality control samples at 1.5 ng/mL, 3 ng/mL, 50 ng/mL and 400 ng/mL for brain homogenate were prepared independently of those used for the calibration curves. These QC samples were prepared on the day of analysis in the same way as calibration standards. 55 μl of standards, 55 μl of QC samples and 55 μl of unknown samples (50 µL of brain homogenate with 5 µL of blank solution) were added to 200 μl of acetonitrile containing IS mixture for precipitating protein, respectively. Then the samples were vortexed for 30 seconds. After centrifugation at 4 °C, 4000 x g for 15 min, the supernatant was diluted 5 times with water. 25 µl of diluted supernatant was injected into the LC-MS/MS system (AB API 5500 + LC-MS/MS instruments (Serial No. EX224682008)) for quantitative analysis. To measure the 4A7C-301 concentration in the plasma, serum samples were obtained from the collected blood and analyzed by LC-MS/MS system as indicated above.
# [2] = time 00:15:00, individual replicates
# [3] = time 0:30:00, individual replicates
# [4] = time 1:00:00, individual replicates
# [5] = time 2:00:00, individual replicates
# [6] = time 4:00:00, individual replicates
# [7] = time 6:00:00, individual replicates
# [8] = time 8:00:00, individual replicates
# [9] = time 24:00:00, individual replicates
compound,measurement,setting,value
"CCN1CCN(c2cc(N3CCN(CC)CC3)nc(NCCNc3ccnc4cc(Cl)ccc34)n2)CC1 [4A7C-301, N^1-(4,6-bis(4-ethylpiperazin-1-yl)pyrimidin-2-yl)-N^2-(7-chloroquinolin-4-yl)ethane-1,2-diamine]","Luciferase activity (fold), Nor1",Nor1,3.28 fold and 3.108 fold and 3.492 fold
same,concentration of maximal effect on mDAN rescue,TH+ neurons; MPP+ or LPS,500 nM
same,"concentration of maximal effect, times lower than CQ",TH+ neurons; mDAN rescue,40 times
same,Relative LC3B-II experession (normalized to β-actin),"N27-A cells; Figure 3f, w/ MPP+, 0h",0.779 and 0.690 and 0.799
same,Relative LC3B-II experession (normalized to β-actin),"N27-A cells; Figure 3f, w/ MPP+, 4h",1.160 and 0.971 and 1.153
same,Relative LC3B-II experession (normalized to β-actin),"N27-A cells; Figure 3f, w/o MPP+, 0h",0.728 and 0.654 and 0.714
same,Relative LC3B-II experession (normalized to β-actin),"N27-A cells; Figure 3f, w/o MPP+, 4h",0.866 and 0.789 and 0.873
same,Relative LC3B-II experession (normalized to β-actin),"N27-A cells; Figure 3g, w/ MPP+, 0h",1.116 and 1.094 and 1.285
same,Relative LC3B-II experession (normalized to β-actin),"N27-A cells; Figure 3g, w/ MPP+, 4h",0.639 and 0.745 and 0.861
same,Relative LC3B-II experession (normalized to β-actin),"N27-A cells; Figure 3g, w/o MPP+, 0h",1.157 and 1.166 and 1.326
same,Relative LC3B-II experession (normalized to β-actin),"N27-A cells; Figure 3g, w/o MPP+, 4h",0.499 and 0.504 and 0.579
same,autophagic flux (in words),N27-A cells; MPP+ 1 mM,significantly restored autophagy
same,autophagic flux (in words),N27-A cells; without MPP+,proceeded
same,brain permeability (in words),"[1]; SD rats, oral, 20 mg/kg, plasma and brain homogenates",penetrated into the brain well
same,concentration at […],"[1]; male, SD, rat, brain, oral, 2 mg/mL, time 00:15:00, individual replicates, read-out: Brain",0 ng/g
same,concentration at 0.5 h,"[1]; male, SD, rat, brain, oral, 2 mg/mL, time 0:30:00, individual replicates, read-out: Brain",0 ng/g
same,concentration at 8 h,"[1]; male, SD, rat, brain, oral, 2 mg/mL, time 8:00:00, individual replicates",28.7 ng/g
same,concentration at […],"[1]; male, SD, rat, plasma, oral, 2 mg/mL, time 00:15:00, individual replicates, read-out: Plasma",0 ng/mL
same,concentration at 0.5 h,"[1]; male, SD, rat, plasma, oral, 2 mg/mL, time 0:30:00, individual replicates, read-out: Plasma",0 ng/mL
same,Brain,[1]; [2],0 ng/g
same,Plasma,[1]; [2],0 ng/mL
same,Brain,[1]; [3],0 ng/g
same,Plasma,[1]; [3],0 ng/mL
same,B/P ratio,[1]; [4],0.033 and 0.167 and 0.126
same,Brain,[1]; [4],3.39 ng/g and 9.12 ng/g and 2.65 ng/g
same,Plasma,[1]; [4],20.3 ng/mL and 72.3 ng/mL and 80.8 ng/mL
same,B/P ratio,[1]; [5],0.395 and 0.077 and 0.505
same,Brain,[1]; [5],7.24 ng/g and 13.5 ng/g and 6 ng/g
same,Plasma,[1]; [5],94 ng/mL and 26.7 ng/mL and 15.2 ng/mL
same,B/P ratio,[1]; [6],0.137 and 0.126 and 1.648
same,Brain,[1]; [6],27.2 ng/g and 13.5 ng/g and 7.16 ng/g
same,Plasma,[1]; [6],216 ng/mL and 8.18 ng/mL and 52.2 ng/mL
same,B/P ratio,[1]; [7],0.074 and 0.166 and 2.055
same,Brain,[1]; [7],19.9 ng/g and 24 ng/g and 4.36 ng/g
same,Plasma,[1]; [7],120 ng/mL and 11.7 ng/mL and 58.6 ng/mL
same,B/P ratio,[1]; [8],0.112 and 3.845 and 0.261
same,Brain,[1]; [8],16.8 ng/g and 20.2 ng/g
same,Plasma,[1]; [8],7.47 ng/mL and 64.3 ng/mL and 180 ng/mL
same,B/P ratio,[1]; [9],10.245 and 0.957 and 6.289
same,Brain,[1]; [9],61.6 ng/g and 20 ng/g and 36 ng/g
same,Plasma,[1]; [9],64.4 ng/mL and 3.18 ng/mL and 3.51 ng/mL
